Data published in patent publication US8158621B2, “Methods of treating or preventing autoimmune diseases with 2,4-pyrimidinediamine compounds” (Rigel Pharmaceuticals, Inc., priority 2002, dated 2012).

What was measured:
[1] = system: Human Jurkat T-cells (clone N); assay: Jurkat T-cell activation (anti-TCR, CD69 upregulation); type: cell-based
Procedure, shortened: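 Jurkat cells in RPMI + 5% FBS preincubated with compound 1 h at 37 °C, then stimulated with anti-TCR C305 at 500 ng/ml for 20 h. CD69 surface expression stained with anti-CD69-APC and read by flow cytometry; IC50 versus solvent-only control.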

[2] = system: basophil cells (human peripheral blood); assay: Basophil ionomycin activation: histamine release assay; type: cell-based; settings: basophils, ionomycin activation, histamine release; read-out: Basophils Ionomycin Histamine IC50
Description: The basophil activation assay was carried out using whole human peripheral blood from donors allergic to dust mites with the majority of the red blood cells removed by dextran sedimentation. Human peripheral blood was mixed 1:1 with 3% dextran T500 and RBCs were allowed to settle for 20-25min. The upper fraction was diluted with 3 volumes of D-PBS and cells were spun down for 10 min at 1500 rpm, RT. Supernatant was aspirated and cells were washed in an equal volume MT-buffer. Finally, cells were resuspended in MT-buffer containing 0.5% DMSO in the original blood volume. 80 uL cells were mixed with 20 uL compound in the presence of 0.5% DMSO, in triplicate, in a V-bottom 96-well tissue culture plate. A dose range of 8 compound concentrations was tested resulting in a 10-point dose response curve including maximum (stimulated) and minimum (unstimulated) response. […] The cells were stimulated for 30 minutes at 37° C., 5% CO2. The plate was spun for 10 min at 1500 rpm at room temperature and 80 uL the supernatant was harvested for histamine content analysis using the histamine ELISA kit supplied by Immunotech. The ELISA was performed according to supplier's instructions.
Assays for ionomycin-induced basophil cell degranulation were carried out as described for the Basophil IgE or Dustmite Activation Assay (Section 7.5.5, supra), with the exception that following incubation with compound, cells were stimulated with 20 μl of 2 μM ionomycin.

Primary T-cells = assay: Primary T-cell cytokine production (αCD3/αCD28): IL-2; type: cell-based, human; settings: read-out: 1° T-Cell IL2 IC50
Description: 2E8-4E8 PBMC or proliferating T cells grown in rIL-2 from healthy human donors were suspended in PBS were spun down (1500 rpm, 8-10 minutes) and resuspended in 100 ml RPMI Complete media (1% Pen-Strep, 1% L-Glutamine, 10 mM HEPES). The cells were plated in T175 flasks (37° C., 5% CO2) and monocytes were allowed to adhere for 2-3 hours. After monocyte attachment, non-adherent cells were harvested, counted by hemocytometer, washed several times with PBS then resuspended in Yssels Complete Media (Modified IMDM Media with 1% Human AB Serum, 1% Pen-Strep, 1% L-Glutamine, 10 mM HEPES) at […]. 90 uL of the cell dilution were then added to compounds diluted to 2× in Yssel's media and incubated for 30 minutes at 37° C. (5% CO2). After this preincubation step the compound/cell mixture was transferred to stimulation plates, as described below.
Stimulation plates were prepared by coating 96 well plates with 5 μg/ml αCD3 (BD PharMingen, Catalog #555336)+10 μg/ml αCD28 (Beckman Coulter, Catalog #IM1376) in PBS (no Ca^2+/Mg^2+) at 37° C. (5% CO2) for at 3-5 hours. After incubation with the stimulation antibodies, the cocktail was removed and the plates washed 3 times with PBS prior to addition of the primary T cell/compound mixture.
The compound/cell mixture was transferred to the stimulation plates and incubated for 18 hr at 37° C. (5% CO2). After the cell stimulation, ˜150 μl supernatant were transferred from each well into 96-well filter plates (Coming PVDF Filter Plates) spun down (2000 rpm, 2-3 minutes) and either used immediately for ELISA or LUMINEX measurements or frozen down at −80° C. for future use.
IL-2 ELISAs were performed using the Quantikine Human IL-2 ELISA kit (R&D Systems, Catalog # D2050) as described by the manufacturer and absorption was measured on a spectrophotometer at 450 nm wavelength. Blank values were substracted and absorbances were converted to pg/mL based on the standard curve.
Luminex immunoassay multiplexing for TNF, IL-2, GMSCF, IL-4 and IFNg was performed essentially as described by the manufacturer (Upstate Biotechnology). Essentially 50 uL of sample was diluted into 50 uL assay diluent and 50 uL incubation buffer, then incubated with 100 uL of the diluted detection antibody for 1 hr at RT in the dark. The filter plate was washed 2× in Wash Buffer, then incubated with 100 uL of the diluted secondary reagent (SAV-RPE) for 30 min at RT in the dark. Finally the plates were washed 3 times and bead identification and RPE fluorescent measured by the Luminex instrument.
Varied concentrations of compound were compared to solvent only to determine the inhibition of T-cell activation IC50 of each compound.

[3] = Sheep model of allergic asthma; type: in vivo
Description: In the sheep model of allergic asthma, sheep are administered aerosols of test article via an endotracheal tube, followed by an aerosol challenge with antigen extracted from the roundworm, Ascaris suum, to which the sheep are naturally allergic. Allergen challenge leads to direct bronchoconstriction (both EAR and LAR) and a persistent non-specific AHR. These three characteristics are similar to those seen in human allergic asthmatics. The activity of the test agent is determined by changes in the lung resistance (RL), which is calculated from measurements of transpulmonary pressure, flow, and respiratory volume. […] The LAR is a less pronounced increase in RL, which starts approximately 5-6 hours following allergen challenge and is resolved by 8 hours post-challenge. Twenty-four hours after the challenge, a dose response to carbachol is measured to determine the AHR, which is expressed as the dose of carbachol required to increase RL by 400% over baseline. (This measurement is referred to as the provocative concentration of carbachol that elicits a 400% increase in RL over baseline (PC400). The data are compared to historical control data for the same individual when administered a saline control aerosol and challenged with Ascaris suum.

Syk kinase = target: T1, Syk kinase (Homo sapiens, UniProt P43405); assay: Syk kinase biochemical fluorescence polarization assay; settings: isolated Syk kinase, fluorescence polarization, 4 uM ATP
T1 construct: purchased Upstate, Lake Placid NY

[4] = system: cultured human mast cells (CHMC); assay: CHMC high cell density IgE activation: histamine; type: cell-based
Description: (§1) After sensitizing, cells are counted, pelleted (1000 rpm, 5-10 minutes), and resuspended at 1-2 ×10^6 cells/ml in MT buffer. Add 100 ul of cell suspension to each well and 100 ul of compound dilutions. The final vehicle concentration is 0.5% DMSO. Incubate at 37° C. (5% CO2) for 1 hour. After 1 hour of compound treatment, stimulate cells with 6× anti-IgE. Mix wells with the cells and allow plates to incubate at 37° C. (5% CO2) for one hour. After 1 hour incubation, pellet cells (10 minutes, 1000 RPM) and collect 200 ul per well of the supernatant, being careful not to disturb pellet. Place the supernatant plate on ice. During the 7-hour step (see next) perform tryptase assay on supernatant that had been diluted 1:500. Resuspend cell pellet in 240 ul of CM media containing 0.5% DMSO and corresponding concentration of compound. Incubate CHMC cells for 7 hours at 37° C. (5% CO2). After incubation, pellet cells (1000 RPM, 10 minutes) and collect 225 ul per well and place in −80° C. until ready to perform ELISAS. ELISAS are performed on appropriately diluted samples (determined empirically for each donor cell population so that the sample measurement falls within the standard curve) following the supplier's instructions.

[5] = system: cultured human mast cells (CHMC); assay: CHMC high cell density IgE activation: hexos; type: cell-based
Description: as §1
Add 50 uL of BMMC cell supernatant (see above) to the hexoseaminidase substrate, place at 37° C. for 30 minutes and read the plate at 5, 10, 15, and 30 minutes on a spectrophotometer.

[6] = system: cultured human mast cells (CHMC); assay: CHMC high cell density IgE activation: tryptase; type: cell-based
Description: as §1

[7] = system: cultured human mast cells (CHMC); assay: CHMC high cell density IgE activation: IL-13; type: cell-based
Description: as §1

[8] = system: cultured human mast cells (CHMC); assay: CHMC low cell density ionomycin activation: tryptase assay; type: cell-based
[9] = system: cultured human mast cells (CHMC); assay: CHMC high cell density IgE activation: LTC4; type: cell-based
Description: as §1

[10] = system: cultured human mast cells (CHMC); assay: CHMC high cell density IgE activation: TNFalpha; type: cell-based; settings: read-out: CHMC high density TNF-alpha
Description: as §1

[11] = system: IgE-induced degranulation of tissue mast cells; assay: Mouse model of passive cutaneous anaphylaxis (PCA); type: in vivo; settings: oral route in a PEG-based formulation (data not shown)
Description: This model provides a direct measure of IgE-induced degranulation of tissue mast cells. In this model, IgE primed animals are exposed to an allergen challenge, and the change in permeability of dermal vasculature that results from histamine release from mast cells is measured by change in the amount of dye leakage into surrounding tissue. Inhibition of mediator release by compounds that modulate mast cell degranulation is easily measured by extracting the dye from the tissue.
In the PCA assay mice are passively sensitized by intradermal injection with anti-dinitrophenol (DNP) IgE antibodies (Day −1). At predetermined times animals are treated with the test agent (Day 0). The modulatory effect of the agent on cutaneous mast cell degranulation is measured following intravenous injection of DNP conjugated to human serum albumin (HSA-DNP), together with Evans blue dye. The resulting cross-linking of the IgE receptor and subsequent mast cell degranulation-induced increase in vascular permeability is determined by measuring the amount of dye extravasation into the tissue. Dye is extracted from the tissue by formamide, and the absorbance of this extract is read at 620 nm.

[12] = system: cultured human mast cells (CHMC); assay: CHMC low cell density IgE activation: tryptase assay; type: cell-based; settings: Low Density; read-out: CHMC anti-IgE Tryptase
Procedure, shortened: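 Low-density CHMC assay: donor-adjusted 1000-1500 cells/well, MT buffer, 1 hr 37° C preincubation; anti-IgE stimulus 30 min 37° C versus MT-only controls; supernatant tryptase by substrate, 30 min RT.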

[13] = dose, pretreatment and vehicle per compound as in TABLE 5
[14] = Low Density, read-out: CHMC Ionomycin Tryptase

SMILES	IC50 [1] [nM]	IC50 [2] [µM]	IC50 (Primary T-cells) [nM]	EAR [3, 13]	LAR and AHR [3, 13]	IC50 (Syk kinase) [nM]	IC50 [4] [nM]	IC50 [5] [nM]	IC50 [6] [nM]	IC50 [7] [nM]	IC50 ([8]; Low Density CHMC, ionomycin activation, tryptase release, read-out: CHMC Ionomycin Tryptase IC50) [µM]	IC50 [9] [nM]	IC50 [10] [nM]	PCA response [11]	EAR ([3]; administered in an aqueous suspension)	IC50 [8, 14] [µM]	IC50 [12] [nM]
CNC(=O)COc1cccc(Nc2ncc(F)c(Nc3ccc4c(c3)OCCO4)n2)c1 [Compound R926495]	11900	> 10	643	greatly reduced	blocked	–	–	–	–	–	–	–	–	–	–	–	–
O=C(c1cc2cc(Nc3ncc(F)c(Nc4cccc(O)c4)n3)ccc2o1)N1CCNCC1 [Compound R926502]	1630	> 10	–	–	–	217	> 2000	> 2000	> 2000	> 2000	–	–	–	–	–	–	–
OCc1cc2cc(Nc3ncc(F)c(Nc4cccc(O)c4)n3)ccc2[nH]1 [Compound R926700]	510	–	–	–	–	–	< 1100	< 1100	< 1100	2050	> 10	< 1100	< 1100	–	–	–	–
CNC(=O)COc1cccc(Nc2ncc(C(F)(F)F)c(Nc3cccc(O)c3)n2)c1 [Compound R926742]	–	> 10	717	–	blocked	76	–	–	–	–	–	–	–	able to inhibit the PCA response	failed to inhibit	–	–
Cc1cc(Nc2ncc(F)c(Nc3cc(C)c(O)c(Cl)c3)n2)cc(Cl)c1O [Compound R940216]	1280	–	–	–	–	–	1180	< 1100	< 1100	3010	–	< 1100	3190	–	–	7.3	268
Nc1cc(Cl)cc(Nc2ncc(F)c(Nc3cc(N)cc(Cl)c3)n2)c1 [Compound R950141]	2380	–	–	–	–	–	627	567	618	798	–	201	1060	–	–	> 10	310
